{"source": "patent US5773469A", "about": "“Diaryl antimicrobial agents” (Ortho Pharmaceutical Corporation, priority 1996, dated 1998)", "note": "Counter-ions that a name gives are not always drawn."}
{"target": "T1, Kinase A and SpoOF (Bacillus subtilis, UniProt P16497)", "T1 sequence (P16497 1-606)": "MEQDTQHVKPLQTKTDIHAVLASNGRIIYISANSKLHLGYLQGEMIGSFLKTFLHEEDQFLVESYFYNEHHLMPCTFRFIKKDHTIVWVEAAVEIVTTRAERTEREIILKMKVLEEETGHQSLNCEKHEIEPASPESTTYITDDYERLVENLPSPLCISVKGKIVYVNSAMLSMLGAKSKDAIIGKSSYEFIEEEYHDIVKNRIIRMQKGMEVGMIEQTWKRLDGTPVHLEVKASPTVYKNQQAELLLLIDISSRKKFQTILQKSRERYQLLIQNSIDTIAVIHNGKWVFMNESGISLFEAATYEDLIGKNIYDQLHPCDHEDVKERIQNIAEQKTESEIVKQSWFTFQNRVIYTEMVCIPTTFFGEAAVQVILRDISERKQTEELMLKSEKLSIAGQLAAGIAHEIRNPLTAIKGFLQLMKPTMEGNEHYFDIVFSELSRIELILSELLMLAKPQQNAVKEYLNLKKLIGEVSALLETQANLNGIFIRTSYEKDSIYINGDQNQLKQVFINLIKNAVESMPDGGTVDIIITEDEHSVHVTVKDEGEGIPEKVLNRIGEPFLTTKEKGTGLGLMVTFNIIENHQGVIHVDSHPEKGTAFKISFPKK", "assay": "Autophosphorylation of Kinase A and transphosphorylation of SpoOF assay (HPK in vitro assay)", "type": "biochemical", "conditions": "inhibition of KinA autophosphorylation / SpoOF transphosphorylation, [32P]ATP, gel and phosphoimager", "protocol": "1. Autophosphorylation of Kinase A and Transphosphorylation of SpoOF Assay\nTo study the effect of the compounds of the present invention on the signal transduction process in bacteria, the inhibiting effect of the compounds on the sporulation operon proteins Kinase A and SpoOF was examined. Specifically, the inhibition of autophosphorylation of Kinase A and the transphosphorylation of SpoOF was determined in the following assays. The SpoOF response regulator is the primary substrate for phosphorylation by the protein kinase, Kin A, involved in the sporulation process in bacteria. See D. Burbulys, K. A. Trach, J. A. Hoch, Cell, 64, 545-552 (1991).\nThe following stock reagents were either prepared and used promptly or stored at the indicated temperature:\n8× Salts: 2M KCl (5 mL), 1M MgCl2 (800 mL), 1M CaCl2 (100 mL), 10 mg/mL phenylmethylsulfonyl fluoride (200 mL), 1M dithioreitol (50 mL), 0.25M Na2 EDTA (32 mL) and H2 O 3.82 mL (-20°C.)\n5× Loading Dye: 0.5M TRIS-HCl-pH 6.8 (7.5 mL), 10% SDS (2 mL) 0.1% bromophenol blue (0.5 mL), 100% glycerol (3 mL) and 12.5M 2-mercaptoethanol (0.3 mL)\n1-1.3 mg/mL KinA:15 mM TRIS-HCl, pH 8.0, 6 mM KCl; 4 mM 2-mercaptoethanol; 40% glycerol (-20 C.)\n1 mg/mL Spo0F: 17.5 mM TRIS-HCl, pH 8.0; 0.7 mM KCl; 0.7 mM MgCl2; 0.7 mM CaCl2; 5 mM 2-mercaptoethanol; 30% Glycerol (-20°C.)\n5% Stacking Gel: 40% 29:1 acrylamide:bis acrylamide (1.25 mL), 0.5M TRIS-HCl, pH 6.8 (2.5 mL), 10% SDS (0.1 mL), D-H2 O (6.15 mL) 10% ammonium persulfate (100 mL) and TEMED (25 mL)\nSDS Running Buffer: TRIS-BASE (3.02 g), glycine (14.4 g) SDS (1 g), D-H2 O (to 1 L)\nThe reaction mixture was prepared from 8× Salts (87 μL), 1M TRIS, pH 8 (118 EL), 50% glycerol (63 μL), Spo0F (14.1 μL) and KinA (7.0 μL). Microcentrifuge tubes were charged with the reaction mixture (18.5 μL) and a 1.0 mM solution of the test compound in 5% DMSO (18.5 μL), and incubated for 15 min on ice. 100 mM ATP solution (3.0 μI, containing 625 μCi [^32 P]ATP) was added, and the mixture left for 10 minutes at room temperature. The reaction was quenched with 5× loading dye (10 μL per tube) and the samples were loaded on a prepared 5% Stacking Gel, or stored on dry ice until ready for use. The prepared wells were filled with SDS Running Buffer, samples were loaded into the wells, and 80 volts were applied to the gel until the dye front reached the bottom of the stacking gel. The voltage was then increased to 250 volts until electrophoresis was complete. Radioactive bands in the gel corresponding to phosphorylated KinA and SpoOF were imaged and quantitated with a phosphoimager.\nIf either enzyme was inhibited (as evidenced by the absence of labelled protein in the developed gel), an IC50 was calculated by running the assay with a range of inhibitor concentrations from 1 to 500 μM. After electrophoresis of the reaction mixtures, percent inhibition was determined by measuring the concentration of radioactive phosphorus with a phosphoimager and calculating the values using a software program (BioRad Molecular Analyst).", "units": {"IC50": "µM"}}
{"smiles": "NCCc1ccc(NC/C=C(/c2ccccc2)c2cccnc2)cc1", "note": "[Compound 20, Z-2-[4-(3-PHENYL-3-(3-PYRIDYL)PROPENYLAMINO)PHENYL]-ETHYLAMINE·OXALATE·0.2DIETHYL ETHER·0.15 ETHYL ACETATE·0.5 HYDRATE]", "IC50": "> 500"}
{"smiles": "NCCCc1ccc(OCC=C(c2ccccc2)c2ccccc2)cc1", "note": "[Compound 11, 3-[4-(3,3-DIPHENYL-2-PROPENOXY)PHENYL]PROPYLAMINE·OXALATE]", "IC50": 19.5}
{"smiles": "O=C(CC(c1ccccc1)c1ccccc1)Nc1ccc(N2CCNCC2)cc1", "note": "[Compound 13, 4-[4-(3,3-DIPHENYLPROPANOYLAMINO) PHENYL]PIPERAZINE·0.5 HYDRATE]", "IC50": 379.4}
{"smiles": "N=C(N)NCc1cccc(OCCC(c2ccccc2)c2ccccc2)c1", "note": "[Compound 7, [3-(3,3-DIPHENYLPROPOXY)PHENYL]METHYLGUANIDINE BICARBONATE 0.5 HYDRATE]", "IC50": 60}
{"smiles": "N=C(N)NCCc1ccc(OCCN(Cc2ccccc2)Cc2ccccc2)cc1", "note": "[Compound 23, 2-[4-(2-[N,N'-DIBENZYLAMINO]-ETHOXY)PHENYL]ETHYLGUANIDINE]", "IC50": 60}
{"smiles": "NCCc1ccc(OCC=C(c2ccccc2)c2ccccc2)cc1", "note": "[Compound 9, 2-[4-(3,3-DIPHENYL-2-PROPENOXY)PHENYL]ETHYLAMINE HYDROCHLORIDE·0.5HYDRATE]", "IC50": 41}
{"smiles": "NCc1cccc(OCCC(c2ccccc2)c2ccccc2)c1", "note": "[Compound 8, [3-(3,3-DIPHENYLPROPOXY)PHENYL]METHYLAMINE·HYDROCHLORIDE·0.6 HYDRATE]", "IC50": 42.9}
{"smiles": "NCCc1ccc(OCCC(c2ccccc2)c2ccccc2)cc1", "note": "[Compound 2, 2-[4-(3,3-DIPHENYLPROPOXY)PHENYL]ETHYLAMINE]", "IC50": 31.25}
{"smiles": "C1=C(c2ccc(OCCOC(c3ccccc3)c3ccccc3)cc2)CCNC1", "note": "[Compound 25, 4-{4-[2-(DIPHENYLMETHOXY) ETHOXY]PHENYL}-1, 2, 3, 6-TETRAHYDROPYRIDINE·MONOOXALATE 0.5 HYDRATE]", "IC50": 313}
{"smiles": "NCCc1ccc(NC/C=C(\\c2ccccc2)c2cccnc2)cc1", "note": "[Compound 21, E-2-[4-(3-PHENYL-3-(3-PYRIDYL)-2-PROPENYLAMINO)PHENYL]-ETHYLAMINE·OXALATE·0.33 ETHYL ACETATE·0.5 HYDRATE]", "IC50": "> 500"}
{"smiles": "NCCc1ccc(OC(c2ccccc2)c2ccccc2)cc1", "note": "[Compound 10, 2-{4-(2-DIPHENYL-2-METHOXY)PHENYL}ETHYLAMINE·HYDROCHLORIDE·HYDRATE]", "IC50": 68}
{"smiles": "Brc1ccc(OCCC(c2ccccc2)c2ccccc2)cc1", "note": "[Compound 17, 4-(3,3-DIPHENYLPROPOXY)BROMOBENZENE]", "IC50": 643.5}
{"smiles": "NCCc1ccc(O[C@@H]2CC[C@H](c3ccccc3)c3ccccc32)cc1", "note": "(relative stereo) [Compound 6, 2-[4-(ClS-4-PHENYL-1,2,3,4-TETRAHYDRO-1-NAPHTHOXY)PHENYL]-ETHYLAMINE OXALATE]", "IC50": 68.9}
{"smiles": "O=CN1CCN(c2ccc(OCCC(c3ccccc3)c3ccccc3)cc2)CC1", "note": "[Compound 12, 1-FORMYL-4-[4-(3,3-DIPHENYLPROPOXY)PHENYL]PIPERAZINE·0.5 HYDRATE]", "IC50": 165}
{"smiles": "O=C(O)C(=O)O.c1ccc(C(CCOc2ccc(N3CCNCC3)cc2)c2ccccc2)cc1", "note": "[Compound 14, 4-[4-(3,3-DIPHENYLPROPOXY)PHENYL]PIPERAZINE OXALATE]", "IC50": 130.4}
{"smiles": "NCCc1ccc(OCCC(c2ccccc2)c2cccnc2)cc1", "note": "(stereo not drawn) [Compound 18, 2-[4-(3-PHENYL-3-(3-PYRIDYL)PROPOXY)PHENYL]ETHYLAMINE·OXALATE·0.1 HYDRATE]", "IC50": "> 100"}
{"smiles": "N=C(N)NCCc1ccc(OCCC2c3ccccc3-c3ccccc32)cc1", "note": "[Compound 4, {2-[4-[2-(9-FLUORENYL)ETHOXY]PHENYL]ETHYL}GUANIDINE]", "IC50": 19.8}
{"smiles": "N=C(N)NCCc1ccc(OCCC(c2ccccc2)c2ccccc2)cc1", "note": "[Compound 3, 2-[4-(3,3-DIPHENYLPROPOXY)PHENYL]ETHYLGUANIDINE]", "IC50": 21.5}
{"smiles": "c1ccc(C(OCCOc2ccc(N3CCNCC3)cc2)c2ccccc2)cc1", "note": "[Compound 24, 4-[4-{2-(DIPHENYLMETHOXY)ETHOXY}PHENYL]PIPERAZINE·CARBONATE 2.0 HYDRATE]", "IC50": 769}
{"smiles": "C1=C(c2ccc(OCCC(c3ccccc3)c3ccccc3)cc2)CCNC1", "note": "[Compound 15, 4-[4-(3,3-DIPHENYLPROPYLOXY)PHENYL]-1,2,3,6-TETRAHYDROPYRIDINE·HYDROCHLORIDE 0.6 HYDRATE]", "IC50": 45.6}
{"test_system": "gram positive bacteria / Gram negative bacteria (Enterococcus faecalis, Staphylococcus aureus incl. methicillin resistant, Staphylococcus epidermidis …)", "assay": "MIC antimicrobial assay (NCCLS microdilution broth method)", "type": "cell-based", "conditions": "MIC value range over the selected gram positive and gram negative test organisms; 35° C., 16-20 hours", "protocol": "2. MIC Antimicrobial Assay\nThe in vitro antimicrobial activity of the compounds was determined by the microdilution broth method following the test method from the National Committee for Laboratory Standards (NCCLS). This method is described in the NCCLS Document M7-A2, Vol.10, No. 8 \"Methods for Dilution Antimicrobial Susceptibility Test for Bacteria that Grow Aerobically-Second Edition.\"\nIn this method two-fold serial dilutions of drug in cation supplemented Mueller-Hinton broth are added to wells in microdilution trays. The test organisms are prepared by adjusting the turbidity of actively growing broth cultures so that the final concentration of test organism after it is added to the wells is approximately 5×10^4 CFUs/well).\nFollowing inoculation of the microdilution trays, the trays are incubated at 35° C. for 16-20 hours and then read. […] The amount of growth in the wells containing the test compound is compared with the amount of growth in the growth-control wells (no test compound) used in each tray. The following test organisms were utilized in the assay:\nEnterococcus faecalis ATCC 29212\nEnterococcus faecalis oc 3041\nEnterococcus faecalis oc 2993\nMethicillin resistant Staphylococcus aureus oc 2089\nMethicillin resistant Staphylococcus aureus oc 667\nStaphylococcus aureus ATCC 29213\nStaphylococcus aureus ATCC 6538\nStaphylococcus epidermidis oc 2603\nEscherichia coli oc 2530 ss […]"}
{"smiles": "N=C(N)NCc1cccc(OCCC(c2ccccc2)c2ccccc2)c1", "note": "[Compound 7, [3-(3,3-DIPHENYLPROPOXY)PHENYL]METHYLGUANIDINE BICARBONATE 0.5 HYDRATE]", "MIC(G+/G-)": "2-32"}
